# Target: T1, dopamine D-2 receptor (D2 Spiper) (Rattus norvegicus, UniProt P61169)
# T1 construct: homogenized limbic brain tissue is incubated with; from tissue; host or cells: limbic brain tissue homogenate
# Assay: 3H-spiroperidol (Spiper.) binding in homogenized limbic brain tissue, affinity for the dopamine D-2 receptor
# Protocol: High affinity for the dopamine D-2 receptor was established by the standard experimental test procedure of Fields, et al., Brain Res., 136, 578 (1977) and Yamamura et al., eds., Neurotransmitter Receptor Binding, Raven Press, New York (1978) wherein homogenized limbic brain tissue is incubated with ^3 H-spiroperidol (Spiper.) and various concentrations of test compound, filtered and washed and shaken with Hydrofluor scintillation cocktail (National Diagnostics) and counted in a Packard 460 CD scintillation counter.
# T1 sequence (P61169 whole entry): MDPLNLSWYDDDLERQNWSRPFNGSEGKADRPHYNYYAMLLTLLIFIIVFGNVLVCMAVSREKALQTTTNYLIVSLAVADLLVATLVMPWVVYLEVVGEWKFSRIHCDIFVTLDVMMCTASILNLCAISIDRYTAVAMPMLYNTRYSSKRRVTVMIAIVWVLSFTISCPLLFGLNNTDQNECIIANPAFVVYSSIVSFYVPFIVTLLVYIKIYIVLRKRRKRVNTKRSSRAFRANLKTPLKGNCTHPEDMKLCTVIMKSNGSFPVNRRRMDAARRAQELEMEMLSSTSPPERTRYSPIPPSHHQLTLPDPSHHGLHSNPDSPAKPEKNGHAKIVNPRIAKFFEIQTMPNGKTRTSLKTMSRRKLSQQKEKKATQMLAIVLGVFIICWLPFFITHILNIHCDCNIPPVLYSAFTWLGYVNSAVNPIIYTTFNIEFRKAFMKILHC
row,Structure (SMILES),IC50 [nM]
1,"CCCCNCCOc1ccc(Cl)c2c1CC(=O)N2 [Example 8, 4-(2-Butylamino-ethoxy)-7-chloro-1,3-dihydro-indol-2-one]",144
2,"CN(CCCC(=O)c1ccc(F)cc1)CCOc1cccc2c1CC(=O)N2 [Example 27, 4-(2-{[4-(4-Fluoro-phenyl)-4-oxo-butyl]-methyl-amino}-ethoxy)-1,3-dihydro-indol-2-one]",346
3,O=C1Cc2c(cccc2OCCNCCCCc2ccccc2)N1 [Example 13],25
4,"O=C1Cc2c(cccc2OCCNCc2ccccc2)N1 [Example 1, 4-(2-Benzylaminoethoxy)-1,3-dihydro-indol-2-one]",145
5,"O=C1Cc2c(OCCN3CCc4ccccc4C3)ccc(Cl)c2N1 [Example 9, 7-Chloro-4-[2-(3,4-dihydro-1H-isoguinolin-2-yl)-ethoxy]-1,3-dihydro-indol-2-one]",81.4
6,"O=C1Cc2c(OCCNCC3CCCCC3)ccc(F)c2N1 [Example 16, 4-[2-(Cyclohexylmethyl-amino)-ethoxy)-7-fluoro-1,3-dihydro-indol-2one]",99.4
7,"CN(CCOc1ccc(Cl)c2c1CC(=O)N2)Cc1ccccc1 [Example 7, 4-[2-(N-Benzyl-N-methyl-amino)-ethoxy]-7-chloro-1,3dihydro-indol-2-one]",231
8,"O=C1Cc2c(OCCNCc3ccccc3)ccc(F)c2N1 [Example 15, 4-(2-Benzylamino-ethoxy)-7-fluoro-1,3-dihydro-indol-2-one]",68.7
9,"O=C1Cc2c(OCCNCc3ccccc3)ccc(Cl)c2N1 [Example 14, 4-(2-Benzylamino-ethoxy)-7-chloro-1,3-dihydro-indol-2-one]",36
10,"CN(CCOc1cccc2c1CC(=O)N2)Cc1ccccc1 [Example 25, 4-[2-(Benzyl-methyl-amino)-ethoxy]-1,3-dihydro-indol-2-one]",645
11,Cc1ccc(CNCCOc2ccc(Cl)c3c2CC(=O)N3)cc1 [Example 6],37.5
12,O=C1Cc2c(OCCNCc3ccc(Cl)cc3)ccc(Cl)c2N1 [Example 5],51.9
13,"NCCOc1cccc2c1CC(=O)N2 [Example 3, 4-(2-Amino-ethoxy)-1,3-dihydro-indol-2-one]",3420
14,"CNCCOc1cccc2c1CC(=O)N2 [Example 2, 4-(2-Methylamino-ethoxy)-1,3-dihydro-indol-2-one]",918
15,O=C1Cc2c(OCCNCc3ccc(F)cc3)ccc(Cl)c2N1 [Example 4],176
